Among the data in patent US8815893B2, “Hetarylaminonaphthyridines” (Merck Patent GmbH, priority 2010, dated 2014) are IC50 values, retold here.

pIC50: −log10 of the molar value.

The target of the assay is T1, GST-ALK5 (Homo sapiens, UniProt P36897).
T1 sequence (P36897 34-503): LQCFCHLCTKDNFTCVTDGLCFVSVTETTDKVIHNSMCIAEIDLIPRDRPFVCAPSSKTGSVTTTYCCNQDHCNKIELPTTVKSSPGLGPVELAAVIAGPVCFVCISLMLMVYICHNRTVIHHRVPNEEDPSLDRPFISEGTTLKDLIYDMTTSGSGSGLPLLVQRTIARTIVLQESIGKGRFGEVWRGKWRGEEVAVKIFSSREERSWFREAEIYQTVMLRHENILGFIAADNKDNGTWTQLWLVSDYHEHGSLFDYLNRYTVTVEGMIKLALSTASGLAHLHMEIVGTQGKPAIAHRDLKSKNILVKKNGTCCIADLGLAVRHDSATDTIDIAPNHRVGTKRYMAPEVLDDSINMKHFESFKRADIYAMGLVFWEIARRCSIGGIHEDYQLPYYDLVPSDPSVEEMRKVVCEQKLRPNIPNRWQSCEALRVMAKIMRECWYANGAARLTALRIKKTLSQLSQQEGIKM
In words: In-vitro (enzyme) kinase assay, 384-well flashplate (example 14). In kind it is biochemical. Particulars: GST-ALK5, GST-SMAD2 substrate, 33P-ATP flashplate, 30° C. 45 min; IC50 classes; read-out: TβR activity (example 14). As for the experimental part: In-Vitro (Enzyme) Assay for Determination of the Efficacy of Inhibitors of the Inhibition of TGF-Beta-Mediated Effects
The kinase assay was carried out as 384-well flashplate assay. 31.2 nM of GST-ALK5, 439 nM of GST-SMAD2 and 3 mM of ATP (with 0.3 μCi of ^33P-ATP/well) were incubated in a total volume of 35 μl (20 mM of HEPES, 10 mM of MgCl2, 5 mM of MnCl2, 1 mM of DTT, 0.1% of BSA, pH 7.4) without or with test substance (5-10 concentrations) at 30° C. for 45 min. The reaction was stopped using 25 μl of 200 mM EDTA solution, filtered with suction at room temperature after 30 min, and the wells were washed with 3 times 100 μl of 0.9% NaCl solution. Radioactivity was measured in the TopCount. The IC50 values were calculated using RS1. Above and below, all temperatures were indicated in ° C.

As to `Fc1ccc(Cl)cc1-c1cc(Nc2ccncc2)c2cccnc2n1` [compound 01], the pIC50 was greater than 7.00. The result for `Nc1cc(Nc2cc(-c3cc(Cl)ccc3F)nc3ncccc23)ncn1` [compound 02] reads greater than 7.00; that for `Cc1cccc(-c2cc(Nc3ccncc3)c3cccnc3n2)n1` [compound 03], greater than 7.00. `Fc1ccc(Cl)cc1-c1cc(Nc2ccncc2OCCN2CCOCC2)c2cccnc2n1` [compound 04]: the pIC50 is 6.00 to 7.00. Under `Fc1ccc(Cl)cc1-c1cc(Nc2ccncn2)c2cccnc2n1` [compound 05] stands greater than 7.00; under `Fc1ccc(-c2cc(Nc3ccncc3)c3cccnc3n2)cc1` [compound 06], greater than 7.00.

Turning to `CCOc1cc(Nc2cc(-c3cc(Cl)ccc3F)nc3ncccc23)ccn1` [compound 07], the pIC50 was 6.00 to 7.00. Under `CN1CCN(c2cc(Nc3cc(-c4cc(Cl)ccc4F)nc4ncccc34)ccn2)CC1` [compound 08] stands 5.00 to 6.00; under `OCCOc1cnccc1Nc1cc(-c2cc(Cl)ccc2F)nc2ncccc12` [compound 09], greater than 7.00. Under `Fc1ccccc1-c1cc(Nc2ccncc2)c2cccnc2n1` [compound 10] stands greater than 7.00. The result for `Clc1cccc(-c2cc(Nc3ccncc3)c3cccnc3n2)c1` [compound 11] reads greater than 7.00. As to `FC(F)(F)c1cccc(-c2cc(Nc3ccncc3)c3cccnc3n2)c1` [compound 12], the pIC50 is greater than 7.00. Under `Fc1ccc(F)c(-c2cc(Nc3ccncc3)c3cccnc3n2)c1` [compound 13] stands greater than 7.00; under `Fc1ccc(Cl)cc1-c1cc(-n2ccc3cnccc32)c2cccnc2n1` [compound 14], greater than 7.00. Under `COCCOc1cnccc1Nc1cc(-c2cc(Cl)ccc2F)nc2ncccc12` [compound 15] stands greater than 7.00; under `Fc1ccc(C(F)(F)F)cc1-c1cc(Nc2ccncc2)c2cccnc2n1` [compound 16], greater than 7.00; under `Fc1ccccc1-c1cc(Nc2ccncn2)c2cccnc2n1` [compound 17], greater than 7.00. Under `Fc1ccc(Cl)cc1-c1cc(Nc2ncncn2)c2cccnc2n1` [compound 18] stands greater than 7.00; under `Cn1cc(-c2cc(Nc3ccncc3)c3cccnc3n2)cn1` [compound 19], 5.00 to 6.00. As for `OCc1cnccc1Nc1cc(-c2cc(Cl)ccc2F)nc2ncccc12` [compound 20], the pIC50 was greater than 7.00. Turning to `Fc1ccc(C(F)(F)F)cc1-c1cc(Nc2ccncn2)c2cccnc2n1` [compound 21], the pIC50 was greater than 7.00. The result for `Nc1cnccc1Nc1cc(-c2cc(Cl)ccc2F)nc2ncccc12` [compound 22] reads greater than 7.00; that for `CN(C)CCOc1cnccc1Nc1cc(-c2cc(Cl)ccc2F)nc2ncccc12` [compound 23], greater than 7.00; that for `c1cnc2nc(-c3cnccn3)cc(Nc3ccncc3)c2c1` [compound 24], 5.00 to 6.00. Take `c1ccc(-c2cc(Nc3ccncc3)c3cccnc3n2)nc1` [compound 25]: the pIC50 was greater than 7.00. Under `COCCOc1cnccc1Nc1cc(-c2cc(C(F)(F)F)ccc2F)nc2ncccc12` [compound 26] stands greater than 7.00; under `CN1CCN(c2ccc(Nc3cc(Nc4cc(-c5cc(Cl)ccc5F)nc5ncccc45)ccn3)cc2)CC1` [compound 27], 6.00 to 7.00; under `Cc1ccn(-c2cc(Nc3ccncc3)c3cccnc3n2)n1` [compound 28], greater than 7.00. As for `O=c1[nH]c2cnccc2n1-c1cc(-c2cc(Cl)ccc2F)nc2ncccc12` [compound 29], the pIC50 is greater than 7.00. Under `Fc1ccc(C(F)(F)F)cc1-c1cc(-n2ccc3cnccc32)c2cccnc2n1` [compound 30] stands greater than 7.00; under `c1cnc2nc(-c3cn[nH]c3)cc(Nc3ccncc3)c2c1` [compound 31], 6.00 to 7.00; under `Nc1cc(Nc2cc(-c3cc(C(F)(F)F)ccc3F)nc3ncccc23)ncn1` [compound 32], greater than 7.00. The result for `CN(C)CCCOc1cnccc1Nc1cc(-c2cc(Cl)ccc2F)nc2ncccc12` [compound 33] reads greater than 7.00.
